Laboratory results as given in US20260327196A1, “AMINO ACID DERIVATIVES FOR DETECTING NEUROLOGICAL DISORDERS” (Amydis, Inc., priority 2023, published 2026).
Counter-ions that a name gives are not always drawn. Blank lines part the entries; values can stand above or below the compound they belong to.

Experiments:
[1] = tested on: Hyperphosphorylated three repeat tau protein; assay: In vivo detection in TBI mouse model, fluorescent imaging of retinas; conditions: intravenous administration, removed retinas, fluorescence microscope; wild type mice of comparable age: no immunostaining
Experimental: Model mice having a target protein, for example, an amyloid beta protein, or a phosphorylated tau protein, or an accumulated mass thereof, are administered compound 1, 2, or 3 intravenously. Retinas of the mice are removed and are mounted on slides. The retinas are washed with PBS 2 times for 5 minutes. A solution of 98% formic acid is added-5 minutes for antigen retrieval. The sampled are washed with distilled water-2 times for 5 minutes. The samples are equilibrated in 1×PBS for 15 minutes, then blocked with 10% goat/donkey serum in 1×PBST (depending on antibodies) for 1 hour. Samples are covered in foil, and washed with 1×PBS 3 times for 5 minutes each. Samples are stained with DAPI (300 nM or 100 ng/ml) in dark for 10 minutes, then tissues are washed 3×10 minutes with PBS. Antifade DAKO mounting medium is added, and coverslip and kept under foil until imaging.
Fluorescent imaging study of the samples is conducted on a Leica DMI 4000B microscope (Leica, Germany) equipped with a TCS SPE camera and Leica 10, 20 and 40× objectives. The following lasers are used to visualize fluorescent probes pertaining to DAPI (blue, nuclear stain), compound 1, 2, or 3 (green) and hyperphosphorylated tau (red): 408, 488 and 568 nm. Z-stacked images are taken at 40× at 0.5 μm increments to visualize the entire thickness of the tissue.

[2] = tested on: amyloid-like deposits in the retina; assay: In vivo NHP imaging study, fundus autofluorescence (FAF); set-up: species or system non-human primates (monkeys); conditions: 5.13 mg/kg IV bolus
Experimental: An in vivo imaging study was carried out in non-human primates (NHP).
Compound 1 was administered to ketamine xylazine-anesthetized monkeys as a single bolus intravenous dose according to Table B. In-vivo fundus autofluorescence (FAF) images were collected prior to injection and at 2-, 5-, 15-, and 30-minutes post injection.
The compound 1 solution for injection (7 mg/mL compound 1 in 13 mM sodium bicarbonate buffered at pH 4.2) was prepared according to the following steps: • 1. Add 3 g sodium bicarbonate to 100 mL water (0.03 g/ml) • 2. Weigh out 4 g of PEG-400 (d. 1.13 g/mL) into an amber, or light isolated, 20 mL storage container containing a stir bar • 3. Add 200 mg of compound 1-HCl to the PEG-400 • 4. Add 20 mL water and stir until clear (~10 min) • 5. Add dropwise 0.6 ml of 0.03 g/ml sodium bicarbonate solution and stir 10 min (PH ~3.8) • 6. Add dropwise another 0.2 ml of the sodium bicarbonate solution and stir 10 min to adjust pH to 4.2 to provide a clear red solution • 7. Filter through 1 inch 0.22 μm diameter syringe filter to give a red clear solution into a presterilized sealed 20 mL amber glass vial • 8. Test the pH to confirm ~4.2 • 9. Transfer the remaining formulation into a 5 mL presterilized amber glass vial and place into a −20° C. freezer for analytical testing. The vial can be stored for up to 1 hour prior to use. • 10. Inject with a sterile syringe attached to a 0.22-micron PVDF membrane filter and needle. Use within 1 hour.

[3] = target: Aβ (Homo sapiens, UniProt P05067); assay: Fluorescence emission / binding of compound 1 to aggregated amyloidogenic protein (Table A); conditions: 4 μM compound 1, 5 μM aggregated protein, 1×PBS pH 7.4
Experimental: (§1) An in vitro study was carried out to characterize the fluorescent properties of compound 1 and its binding to amyloidogenic protein aggregates (e.g., Aβ, aSyn, TTR, and TDP43).
(§2) Compound 1 (4 μM) was prepared with or without 5 μM aggregated amyloidogenic protein in 1× phosphate-buffered saline (PBS). The emission spectra of compound 1 for each sample were collected according to the following protocol and the corresponding fold increases (compound 1+amyloid aggregate/compound 1) were calculated.
(§3) The following protocol was adopted in this study: • 1. Turn on the fluorimeter and let warm up for-30 minutes • 2. Allow aggregated amyloid protein (100 μM) solution to warm to room temperature • 3. Allow the compound 1 to warm to room temperature • 4. Prepare 1×PBS, pH 7.4. • 5. Prepare blank solution of DMSO/PBS (2.42 μl DMSO in 147.6 μl PBS, pH 7.4) • 6. Prepare a 250 μM solution of compound 1 in DMSO. Keep samples in the dark at room temperature. • 7. Prepare a 4 μM compound 1 solution with and without 5 μM aggregated amyloid protein • 8. Measure the emission scan of compound 1+aggregated amyloid protein solution using 1) 450 nm and 2) 488 nm as the excitation wavelength. Record the emission sweep from 450 nm-750 nm. Determine Amax from these spectra • 9. Repeat step 8 for 4 μM compound 1 without amyloid protein • 10. Export the data and plot relative fluorescence intensity (RFI) versus wavelength for emission spectra

[4] = target: aSyn (Homo sapiens, UniProt P37840); assay: as above; conditions: 4 μM compound 1, 5 μM aggregated protein, 1×PBS pH 7.4
Experimental: as §1, §2, §3

[5] = target: TDP43 (Homo sapiens, UniProt Q13148); assay: as above; conditions: 4 μM compound 1, 5 μM aggregated protein, 1×PBS pH 7.4
Experimental: as §1, §2, §3

[6] = target: TTR (Homo sapiens, UniProt P02766); assay: as above; conditions: 4 μM compound 1, 5 μM aggregated protein, 1×PBS pH 7.4
Experimental: as §1, §2, §3

[7] = tested on: aggregates in ALS ex vivo retina cadaver tissue; assay: Ex vivo human cadaver imaging study, flat mounted ALS retinas stained with compound 1; conditions: 60 μM compound 1, 30 minutes at room temperature, confocal microscope
Experimental: An ex vivo human cadaver imaging study was carried out using compound 1. Flat mounted retinas extracted from ALS (amyotrophic lateral sclerosis) human cadavers were stained with compound 1 (60 μM) and images were collected.
The following staining protocol was adopted in this study:
• (i) Fix tissue in room temperature 4% PFA for 20 minutes, wash, permeabilize, and block (5% goat serum in PBST for 1 hour) • (ii) Incubate with 60 μM compound 1 in 1×PBS for 30 minutes at room temperature • (iii) Wash with PBS (3 times for 5 minutes) • (iv) Mount tissue using antifade Prolong Glass mounting media. • (v) Image with confocal microscope • (vi) Add lambda scanning imaging protocol to determine the emission peak.

[8] = tested on: amyloidogenic protein aggregates (e.g., Aβ, aSyn, TTR, and TDP43); assay: In vitro characterization: binding to amyloidogenic protein aggregates; conditions: 4 μM compound 1, 5 μM aggregated protein; excitation 450 and 488 nm
Experimental: as §1, §2
as §3, with “Repeat step 8 for 4 μM compound 1 without amyloid protein • 10.” left out

[9] = FAF images at 2, 5, 15 and 30 minutes post injection

Sequence of Aβ (P05067 672-713 limits assumed): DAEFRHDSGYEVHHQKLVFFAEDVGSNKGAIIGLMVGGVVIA
Sequence of TDP43 (Q13148 whole entry): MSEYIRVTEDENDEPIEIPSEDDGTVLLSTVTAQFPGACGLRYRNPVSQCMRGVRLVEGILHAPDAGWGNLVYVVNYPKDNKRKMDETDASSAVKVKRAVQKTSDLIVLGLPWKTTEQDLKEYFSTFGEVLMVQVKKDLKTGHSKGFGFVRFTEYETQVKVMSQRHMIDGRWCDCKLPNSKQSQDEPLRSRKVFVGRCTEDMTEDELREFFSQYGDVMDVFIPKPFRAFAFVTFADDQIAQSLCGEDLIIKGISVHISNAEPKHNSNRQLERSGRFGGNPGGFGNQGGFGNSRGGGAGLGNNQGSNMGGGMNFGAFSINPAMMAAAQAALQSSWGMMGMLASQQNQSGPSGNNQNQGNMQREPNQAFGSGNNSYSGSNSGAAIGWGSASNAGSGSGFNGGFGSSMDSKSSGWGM

Compound: CC(C)(C)OC(=O)NCC(=O)OCCOCCOCCNC(=O)/C(C#N)=C/c1ccc2cc(N3CCCCC3)ccc2c1 [Compound 2, (E)-2-(2-(2-(2-cyano-3-(6-(piperidin-1-yl)naphthalen-2-yl)acrylamido)ethoxy)ethoxy)ethyl (tert-butoxycarbonyl)glycinate]
detection of hyperphosphorylated three repeat tau in the retina (fluorescent signal) [1]: Hyperphosphorylated three repeat tau protein is detected in the retina, producing a detectable fluorescent signal

Fold (fold increase, compound 1+amyloid aggregate/compound 1) ([3]; excitation 450 nm): 25.3 fold
λmax ([3]; excitation 450 nm): 550 nm
Fold (fold increase, compound 1+amyloid aggregate/compound 1) ([3]; excitation 488 nm): 17.9 fold
λmax ([3]; excitation 488 nm): 555 nm
Fold (fold increase, compound 1+amyloid aggregate/compound 1) ([4]; excitation 450 nm): 174.1 fold
λmax ([4]; excitation 450 nm): 530 nm
Fold (fold increase, compound 1+amyloid aggregate/compound 1) ([4]; excitation 488 nm): 110.8 fold
λmax ([4]; excitation 488 nm): 538 nm
Fold (fold increase, compound 1+amyloid aggregate/compound 1) ([5]; excitation 450 nm): 6.1 fold
λmax ([5]; excitation 450 nm): 544 nm
Fold (fold increase, compound 1+amyloid aggregate/compound 1) ([5]; excitation 488 nm): 4.70 fold
λmax ([5]; excitation 488 nm): 529 nm
Fold (fold increase, compound 1+amyloid aggregate/compound 1) ([6]; excitation 450 nm): 11.5 fold
λmax ([6]; excitation 450 nm): 543 nm
Fold (fold increase, compound 1+amyloid aggregate/compound 1) ([6]; excitation 488 nm): 5.9 fold
λmax ([6]; excitation 488 nm): 549 nm
Compound: N#C/C(=C\c1ccc2cc(N3CCCCC3)ccc2c1)C(=O)NCCOCCOCCOC(=O)CN [Compound 1, (E)-2-(2-(2-(2-cyano-3-(6-(piperidin-1-yl)naphthalen-2-yl)acrylamido)ethoxy)ethoxy)ethyl glycinate hydrochloride salt]
hyperfluorescence in vasculature and retinal tissue following injection [2, 9]: hyperfluorescence was observed within minutes in the vasculature following injection and subsequently in the retinal tissue
labeling of amyloid-like deposits in the retina [2, 9]: labeled amyloid-like deposits in the retina
clearance of signal from the vascular system ([2]; FAF images up to 30 minutes post injection): signal cleared quickly from the vascular system
detection of hyperphosphorylated three repeat tau in the retina (fluorescent signal) [1]: Hyperphosphorylated three repeat tau protein is detected in the retina, producing a detectable fluorescent signal
labeling of aggregates in ALS retina [7]: labeled aggregates in ALS ex vivo retina cadaver tissue
binding to the aggregated amyloidogenic proteins in vitro [8]: successfully bound to the aggregated amyloidogenic proteins in vitro

Compound: C[C@H](N)C(=O)OCCOCCOCCNC(=O)/C(C#N)=C/c1ccc2cc(N3CCCCC3)ccc2c1 [Compound 3, (E)-2-(2-(2-(2-cyano-3-(6-(piperidin-1-yl)naphthalen-2-yl)acrylamido)ethoxy)ethoxy)ethyl L-alaninate hydrochloride salt]
detection of hyperphosphorylated three repeat tau in the retina (fluorescent signal) [1]: Hyperphosphorylated three repeat tau protein is detected in the retina, producing a detectable fluorescent signal
